Laboratory results published in PMC9394284, “Discovery of Novel Dual Adenosine A2A and A1 Receptor Antagonists with 1H-Pyrazolo[3,4-d]pyrimidin-6-amine Core Scaffold as Anti-Parkinson’s Disease Agents” (Pharmaceuticals, 2022).

Legend:
[1] = test system: haloperidol-induced catalepsy; test: haloperidol-induced catalepsy in female rats (bar test); format: in vivo, Sprague Dawley rats
Protocol: Vehicle or varying amount of 11o (0.3, 1, 3, 10 mg/kg) was administered first, followed by IP injection of 1 mg/kg haloperidol 60 min later.
A total of 120 female Sprague Dawley rats (275~300 g) were purchased from Charles River Laboratories (Charles River, Senneville, QC, Canada) and maintained at Atuka, Inc. All animal studies were conducted at Atuka, Inc. according to CCAC guidelines and under IACUC-approved Animal Use Protocols (AUPs), with IACUC number 6606.0.3 for this study.
The catalepsy study incorporated 12 groups of rats. Ten rats were incorporated into each treatment group (total N = 120 rats). Treatments were divided over 3 consecutive treatment blocks and the order of treatments were randomized within each block and all treatments completed within that block before proceeding to the next. […] Catalepsy was assessed a further 60 min later (t = 120).
Behavior was evaluated in each animal by assessing performance on the bar test. Catalepsy was assessed 60 min following haloperidol administration (120 min following administration of vehicle, 11o or istradefylline). […] The time taken for the animal to remove both paws (decent latency) from the rod and place them back on the surface, in seconds was determined. The test was conducted in triplicate and the average of the three tests were calculated.

A3 receptors = target: T1, A3 receptors (Homo sapiens, UniProt P0DMS8); test: radioligand binding to human A3 receptors, CHO-K1 membranes, [125I]AB-MECA
T1 construct: purchased PerkinElmer ES-012-M
T1 sequence (P0DMS8 1-318): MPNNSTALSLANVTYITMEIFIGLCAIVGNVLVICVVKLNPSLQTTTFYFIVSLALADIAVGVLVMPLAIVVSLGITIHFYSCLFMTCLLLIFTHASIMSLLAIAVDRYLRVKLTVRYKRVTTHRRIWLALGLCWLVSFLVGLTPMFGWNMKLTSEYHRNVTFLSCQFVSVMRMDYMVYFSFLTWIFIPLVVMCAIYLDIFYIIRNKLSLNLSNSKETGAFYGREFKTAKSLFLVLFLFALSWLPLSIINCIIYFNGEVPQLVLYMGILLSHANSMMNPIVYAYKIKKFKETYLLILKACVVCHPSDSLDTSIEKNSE
Protocol: The radioligand-binding assays for adenosine receptors were performed at Eurofins Discovery Services (Panlabs, Taiwan). Briefly, stock solutions of the compounds were prepared in DMSO and further diluted with the incubation buffer to the desired concentration. Final DMSO concentrations in the assay were 1.0%. For adenosine A1 screening, a 10 μg aliquots of membrane preparations from human recombinant CHO-K1 cells stably expressing A1 receptors (CHO-K1-hA1AR clone3, EPDST, R200510) were incubated with 1 nM [^3H]DPCPX in incubation buffer (20 mM HEPES, pH 7.4, 10 mM MgCl2, 100 mM NaCl 1.40 nM) for 90 min at 25 °C. Nonspecific binding was estimated in the presence of 100 μM R(-)-PIA. Membranes were filtered and washed 3 times and the filters were counted to determine specifically bound [^3H]DPCPX. Chemical compounds were screened at 10 μM. For A2A screening, membrane preparations from human recombinant HEK-293 cells stably expressing A2A receptors (PerkinElmer, RBHA2AM) were incubated with 0.05 μM [^3H]CGS-21680 in incubation buffer (50 mM Tris-HCl, pH 7.4, 10 mM MgCl2, 1 mM EDTA, 2 U/mL Adenosine Deaminase) for 90 min at 25 °C. Nonspecific binding was estimated in the presence of 50.0 μM NECA. Membranes were filtered and washed 3 times and the filters were counted to determine [^3H]CGS-21680 specifically bound. […] Membranes were filtered and washed 3 times and the filters were counted to determine [^3H]MRS1754 specifically bound. […]
IC50 values were determined by a nonlinear, least-squares regression analysis using MathIQ^TM (ID Business Solutions Ltd., Guildford, UK). Where inhibition constants (Ki) were presented, the Ki values were calculated using Cheng and Prusoff equation [18] using the observed IC50 of the compound, the concentration of radioligand employed in the assay, and the historical values for the KD of the ligand (obtained experimentally at Eurofins Panlabs, Inc.). The Hill coefficient (nH), which defines the slope of the competitive binding curve, was calculated using MathIQ^TM.

[2] = metabolic stability in cryopreserved rat hepatocytes
Protocol: Metabolic stability of 11o was determined in cryopreserved hepatocytes from mice, rats, dogs, monkeys and human according to the SOPs of Frontage Laboratories Inc. Briefly, cryopreserved hepatocytes for pre-clinical animals and for human (BioIVT, Westbury, NY, USA) were thawed in a 37 °C water bath with gentle shaking until ice had almost melted. The suspensions were immediately transferred to a centrifuge tube (50 mL) containing pre-warmed thawing media at 37 °C with gentle handshaking to prevent the cells from settling. Cell suspensions were centrifuged at 50× g and 4 °C for 5 min. The supernatant was discarded and the pellets were resuspended in prewarmed incubation media (5 mL) at 37 °C. The percentage of viable cells in the suspension was determined by Trypan blue staining method to ensure viability of ≥70 %. […] The samples were centrifuged and aliquots of the supernatant were analyzed for parent compounds by LC/MS/MS using suitable multiple reaction monitoring (MRM) transitions. […] The disappearance of 11o and midazolam was monitored by LC/MS/MS (MRM) analysis of the hepatocyte extracts at each time point. The peak area ratio of the analyte to internal standard was obtained for each sample and the rate of disappearance of 11o was assessed by comparing the peak area ratios at various time points to the peak area ratio obtained at t = 0. The t1/2 is obtained (using the linear portion of semi-log plot of the area ratio vs. time) and the CLint values determined using well-stirred model.

[3] = average of duplicate experiments
[4] = Sprague Dawley, rat, cryopreserved hepatocytes in suspension

**Q.** With `Cc1cc(Cn2ncc3c(-c4cccc(C#N)c4F)nc(N)nc32)ccc1N` [11o, 3-(6-Amino-1-(4-amino-3-methylbenzyl)-1H-pyrazolo[3,4-d]pyrimidin-4-yl)-2-fluorobenzonitrile] as the molecule, how does the “reversal of haloperidol-induced catalepsy (latency to step down)” value ([1]; 0.3, 1, 3, 10 mg/kg PO, maximum effect at 10 mg/kg, comparable to istradefylline 1 mg/kg) read?
**A.** dose-dependently reversed haloperidol-induced catalepsy

**Q.** And the ED50 ([1]; Rattus norvegicus, PO 60 min before haloperidol 1 mg/kg, read-out: graded ED50, reversal of haloperidol-induced catalepsy)?
**A.** 3 to 10 mg/kg

**Q.** What about the “nH (Hill coefficient), A3” value (A3 receptors) of the same molecule?
**A.** 0.44

**Q.** What about the IC50 (A3 receptors; [3]) of the same molecule?
**A.** 1.13 µM

**Q.** What about the Ki (A3 receptors; [3]) of the same molecule?
**A.** 1.05 µM

**Q.** What about the CLint scaled at 1 μM [2, 4] of the same molecule?
**A.** 69.2 mL/min/kg

**Q.** What about the half-life at 1 μM [2, 4] of the same molecule?
**A.** 46.9 min

**Q.** And the hepatocyte CLint at 1 μM [2, 4]?
**A.** 14.8 µL/min/1e6 cells

**Q.** What about the “Intrinsic Clearance” value ([2]; rat hepatocytes, 1 μM 11o) of the same molecule?
**A.** 0.0148 mL/min/10^6 Cells
